Measured values: patent US20030212015A1, “Specific modulation of Th1/Th2 cytokine expression by ribavirin in activated T-lymphocytes” (priority 1996, published 2003)

Experiments:
Format in all cases: cell-based, human
IL-4 = assay: Extracellular IL-4 levels in PMA/ionomycin-activated T cells (ELISA)
Description: (§1) Peripheral blood mononuclear cells (PBMCs) were isolated from the buffy coat following Ficoll-Hypaque density gradient centrifugation of 60 ml blood from healthy donors. T-cells were then purified from the PBMCs using Lymphokwik lymphocyte isolation reagent specific for T-cells (LK-25T, One Lambda, Canoga Park Calif.). An average yield of 40-60×10^6 T-cells were then incubated overnight at 37° C. in 20-30 ml RPMI-AP5 (RPMI-1640 medium (ICN, Costa Mesa, Calif.) containing 20 mM HEPES buffer, pH 7.4, 5% autologous plasma, 1% L-glutamine, 1% penicillin/streptomycin and 0.05% 2-mercaptoethanol) to remove any contaminating adherent cells. In all experiments, T-cells were washed with RPMI-AP5 and then plated on 96-well microtitre plates at a cell concentration of 1×10^6 cells/ml.
(§2) T-cells were activated by the addition of 500 ng ionomycin and 10 ng phorbol 12-myristate 13-acetate (PMA) (Calbiochem, La Jolla, Calif.) and incubated for 48-72 h at 37° C. […]
(§3) Cell-derived human cytokine concentrations were determined in cell supernatants from each microplate. Activation-induced changes in interleukin-2 (IL-2) levels were determined using a commercially available ELISA kit (R & D systems Quantikine kit, Minneapolis, Minn.) or by bioassay using the IL-2-dependent cell line, CTLL-2 (ATCC, Rockville, Md.). […]

IFNγ mRNA = IFNγ mRNA in PMA/ionomycin-activated T cells (RT-PCR); details: FIG. 3
Description: (§4) T-cells were activated by the addition of 500 ng ionomycin and 10 ng phorbol 12-myristate 13-acetate (PMA) (Calbiochem, La Jolla, Calif.) and incubated for 48-72 h at 37° C. PMA/ionomycin-activated T-cells were treated with 0.5-50 μM Ribavirin or with 250-10000 U/ml of a control antiviral, interferon-alpha (Accurate, Westbury, N.Y.) immediately following activation and re-treated 24 h later. T-cells from each plate were used for immunofluorescence analysis and the supernatants used for extracellular cytokine measurements. Following activation, 900 μl cell supernatant from each microplate was transferred to another microplate for analysis of cell-derived cytokine production. The cells are then used in immunofluorescence analyses for intracellular cytokine levels and cytokine receptor expression. […]
(§5) The PCR reaction was performed using GeneAmp PCR kit (Perkin-Elmer Cetus, Foster City, Calif.). […] PCR products were analyzed on 2% agarose gel containing ethidium bromide. […] Equivalent loading was assessed following hybridization with a probe generated from pHE7 sense primer. Washed blots were then analyzed using Phosphorlmager.

IL-2 mRNA = IL-2 mRNA in PMA/ionomycin-activated T cells (RT-PCR); details: FIG. 3
Description: as §4, §5

IL-2 = assay: Extracellular IL-2 levels in PMA/ionomycin-activated T cells (ELISA or CTLL-2 bioassay)
Description: as §1, §2, §3

IL-4 (CDw124) receptor = assay: Cell surface IL-4 receptor expression in activated T cells (FACS); details: compared to control activated T cells, FIG. 4
Description: as §4, with “production.” for “production. The cells are then used in immunofluorescence analyses for intracellular cytokine levels and cytokine receptor expression.”
(§6) For direct staining with fluorescence-conjugated antibodies to cell surface antigens, the cells were washed twice with isotonic saline solution, pH 7.4 (Becton Dickinson, Mansfield, Mass.) and resuspended in 50 μl isotonic saline solution and split into two samples. One sample aliquot was co-stained with either PE-anti CD25/FITC-anti CD4 or PE-rat anti mouse IgG+anti-CDw124/FITC-anti CD4 mAb and non-specific fluorescence was assessed by staining the second aliquot with PE/FITC-labeled isotype-matched control monoclonal antibody. All fluorescence-labeled monoclonal antibodies were obtained from Becton Dickinson (San Jose, Calif.) except for anti-CDw124 which was obtained from Pharmingen, San Diego, Calif. […]

IL-2 (CD25) receptor = assay: Cell surface IL-2 receptor expression in activated T cells (FACS); details: compared to control activated T cells, FIG. 4
Description: as §4, with “production.” for “production. The cells are then used in immunofluorescence analyses for intracellular cytokine levels and cytokine receptor expression.”
as §6

IL-2 in CD8+ T cells = assay: Intracellular IL-2 expression in activated CD8+ T cells (two-color flow cytometry); details: PMA/ionomycin alone 81%, one experiment, FIG. 5
Description: (§7) T-cells were activated by the addition of 500 ng ionomycin and 10 ng phorbol 12-myristate 13-acetate (PMA) (Calbiochem, La Jolla, Calif.) and incubated for 48-72 h at 37° C. PMA/ionomycin-activated T-cells were treated with 0.5-50 μM Ribavirin or with 250-10000 U/ml of a control antiviral, interferon-alpha (Accurate, Westbury, N.Y.) immediately following activation and re-treated 24 h later. T-cells from each plate were used for immunofluorescence analysis and the supernatants used for extracellular cytokine measurements. Following activation, 900 μl cell supernatant from each microplate was transferred to another microplate for analysis of cell-derived cytokine production. The cells are then used in immunofluorescence analyses for intracellular cytokine levels and cytokine receptor expression.
(§8) For analyses of the intracellular expression of IL-2 in CD4^+ and CD8^+ T cell subsets, T cells were first treated for the last 4 h of 48-72 h activation with 10 μg Brefeldin A (Gibco BRL, Gaithersburg, Md.) to minimize secretion of newly synthesized IL-2 into the extracellular milieu. […]
(§9) We examined whether the effect of Ribavirin on IL-2 expression was specific to CD4^+ or CD8^+ T cells. Intracellular IL-2 expression in fixed and Permeabilized activated T cells was determined by two-color flow cytometry using fluorescence-labeled antibodies to CD4 or CD8 and to IL-2. […]

TNFα = assay: Extracellular TNFα levels in PMA/ionomycin-activated T cells (ELISA)
Description: as §1, §2, §3

IL-4 mRNA = IL-4 mRNA in PMA/ionomycin-activated T cells (RT-PCR); details: FIG. 3
Description: as §4, §5

IL-2 in CD4+ T cells = assay: Intracellular IL-2 expression in activated CD4+ T cells (two-color flow cytometry); details: PMA/ionomycin alone 82%, one experiment, FIG. 5
Description: as §7, §8, §9

[1] = range 250-10000 U/ml, dose-dependent, compared to untreated activated T cells
[2] = 2, 5 and 10 μM following T cell activation

| Compound | maximal increase of extracellular IL-4 (IL-4; 10000 U/ml) | effect on IFNγ mRNA (IFNγ mRNA; 1000, 2000 and 5000 U/ml) | effect on IL-2 mRNA (IL-2 mRNA; 1000, 2000 and 5000 U/ml) | maximal inhibition of IL-2 expression (IL-2; [1]) | effect on IL-4 receptor expression (IL-4 (CDw124) receptor; 250-10000 U/ml, dose-dependent) | effect on IL-2 receptor expression (IL-2 (CD25) receptor; 250-10000 U/ml, dose-dependent) | percentage of IL-2-expressing CD8+ cells (IL-2 in CD8+ T cells; 5000 U/ml) | maximal inhibition of TNFα expression (TNFα; [1]) | effect on IL-4 mRNA (IL-4 mRNA; 1000, 2000 and 5000 U/ml) | percentage of IL-2-expressing CD4+ cells (IL-2 in CD4+ T cells; 5000 U/ml) | inhibition at 2 µM (IL-4; Homo sapiens, T-cell, at 2 μM, read-out: peak inhibition of activated levels of IL-4) | effect on IFNγ mRNA (IFNγ mRNA; [2]) | effect on IL-2 mRNA (IL-2 mRNA; [2]) | maximal augmentation of activated levels of IL-2 (IL-2; at 5 μM (dose range 0.5-50 μM), PMA/ionomycin-activated T cells, 48-72 h, representative experiment, FIG. 1) | effect on activated levels of IL-4 receptor (IL-4 (CDw124) receptor; 1-50 μM) | effect on activated levels of IL-2 receptor (IL-2 (CD25) receptor; 1-50 μM) | percentage of CD8+ expressing IL-2 (IL-2 in CD8+ T cells; 10 μM) | maximal augmentation of activated levels of TNFα (TNFα; at 20 μM (dose range 0.5-50 μM), PMA/ionomycin-activated T cells, 48-72 h, representative experiment, FIG. 1) | effect on IL-4 mRNA (IL-4 mRNA; [2]) | percentage of CD4+ T cells expressing IL-2 (IL-2 in CD4+ T cells; 10 μM) |
| --- | --- | --- | --- | --- | --- | --- | --- | --- | --- | --- | --- | --- | --- | --- | --- | --- | --- | --- | --- | --- |
| interferon-α | 26% | decreases | decreases | 33% | increased | decreased | 71% | 38% | increases | 81% |  |  |  |  |  |  |  |  |  |  |
| NC(=O)c1ncn([C@@H]2O[C@H](CO)[C@@H](O)[C@H]2O)n1 [Ribavirin, 1-β-D-ribofuranosyl-1,2,4-triazole-3-carboxamide] |  |  |  |  |  |  |  |  |  |  | 74% | has no effect | elevates | 30% | little effect | little effect | 91% | 36% | decreases | 91% |
